According to ChEMBL document CHEMBL1201862, “PubChem BioAssay data set” (2004):
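Briefly, cells in 96-well plates were exposed to five compound concentrations for 48 h, and endpoints were estimated by linear interpolation. GI50 is the concentration that inhibits growth by half.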 The source made the active and inactive calls. Cut-off read from the data, not from the text of the source: active = GI50 up to about 1.1 µM and inactive = higher.

Columns and labels:
Assay in all cases: NCI anticancer screen, dose series, 48 h
[1] = test system: UACC-257
[2] = test system: XF498
[3] = test system: SNB-78
[4] = test system: UACC-62
[5] = test system: HOP-18
[6] = test system: DLD-1
[7] = test system: K562
[8] = test system: NCI/ADR-RES
[9] = test system: M19-MEL
[10] = test system: SF-539
[11] = test system: KM12
[12] = test system: SK-OV-3
[13] = test system: SNB-75
[14] = test system: U-251
[15] = test system: DMS-273

Measured: GI50

Cc1ccc(C#CS(=O)(=O)C(F)(F)F)cc1
inactive: [1] > 100 µM | [2] > 100 µM | [3] > 100 µM | [4] > 100 µM | [5] > 100 µM | [6] > 100 µM | [7] > 100 µM | [8] > 100 µM | [9] > 100 µM | [10] > 100 µM | [11] > 100 µM | [12] > 100 µM | [13] > 100 µM | [14] > 100 µM | [15] > 100 µM

COC1C(O)C(n2ncc3c(SC)nc(SC)nc32)OC1C(O)CO (stereo not given)
inactive: [1] > 37.6 µM | [2] > 100 µM | [3] > 100 µM | [4] > 100 µM | [5] > 100 µM | [6] > 100 µM | [7] > 100 µM | [8] > 100 µM | [9] > 100 µM | [10] > 100 µM | [11] > 100 µM | [12] > 100 µM | [13] > 100 µM | [14] > 100 µM | [15] > 100 µM

O=C1NC(=O)C(CCO)(c2ccccc2)C(=O)N1
inactive: [1] > 100 µM | [2] > 68.4 µM | [3] > 100 µM | [4] > 100 µM | [5] > 100 µM | [6] > 100 µM | [7] > 100 µM | [8] > 100 µM | [9] > 100 µM | [10] > 100 µM | [11] > 100 µM | [12] > 100 µM | [13] > 100 µM | [14] > 100 µM | [15] > 100 µM

CCOC(=O)c1c[nH]c2cc3c(cc2c1=O)CCS3(=O)=O.CCOC(=O)c1c[nH]c2ccc3c(c2c1=O)S(=O)(=O)CC3
inactive: [1] > 100 µM | [2] > 100 µM | [3] > 100 µM | [4] > 100 µM | [5] 97.1 µM | [6] > 100 µM | [7] > 100 µM | [8] > 100 µM | [9] > 100 µM | [10] > 100 µM | [11] > 100 µM | [12] > 100 µM | [13] > 100 µM | [14] > 100 µM | [15] > 100 µM
